Patent US8455534B2, “Estrogen receptor modulators and uses thereof” (Aragon Pharmaceuticals, Inc., priority 2010, dated 2013)
pIC50: −log10 of the molar value.

Columns and labels:
MCF-7 cells = assay: Breast Cancer Cell Viability Assay (MCF-7, CellTiter-Glo); assay type: cell-based; conditions: 5 days' compound exposure; for pIC50: Homo sapiens, MCF7, 120 h
In short: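 Eleven-point semilog compound series, final 0.3-0.000003 μM, added to overnight-adhered MCF-7 cells (320/well; RPMI, 10% FBS, 20 mM HEPES) for 5 days. Viability read by CellTiter-Glo luminescence, background from medium without cells subtracted, expressed relative to untreated cells.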

ER-α = biological target: T1, ER-α (Homo sapiens, UniProt P03372); assay: Breast Cancer Cell ER-α In Cell Western Assay (SP1); assay type: cell-based; conditions: MCF-7 cells, SP1 antibody, 4 or 24 hr post compound addition; for Emax: MCF7, read-out: ER-α In Cell Western Assay (SP1) Max Response; for DC50: read-out: ER-α In Cell Western Assay (SP1) IC50
T1 sequence (P03372 1-595): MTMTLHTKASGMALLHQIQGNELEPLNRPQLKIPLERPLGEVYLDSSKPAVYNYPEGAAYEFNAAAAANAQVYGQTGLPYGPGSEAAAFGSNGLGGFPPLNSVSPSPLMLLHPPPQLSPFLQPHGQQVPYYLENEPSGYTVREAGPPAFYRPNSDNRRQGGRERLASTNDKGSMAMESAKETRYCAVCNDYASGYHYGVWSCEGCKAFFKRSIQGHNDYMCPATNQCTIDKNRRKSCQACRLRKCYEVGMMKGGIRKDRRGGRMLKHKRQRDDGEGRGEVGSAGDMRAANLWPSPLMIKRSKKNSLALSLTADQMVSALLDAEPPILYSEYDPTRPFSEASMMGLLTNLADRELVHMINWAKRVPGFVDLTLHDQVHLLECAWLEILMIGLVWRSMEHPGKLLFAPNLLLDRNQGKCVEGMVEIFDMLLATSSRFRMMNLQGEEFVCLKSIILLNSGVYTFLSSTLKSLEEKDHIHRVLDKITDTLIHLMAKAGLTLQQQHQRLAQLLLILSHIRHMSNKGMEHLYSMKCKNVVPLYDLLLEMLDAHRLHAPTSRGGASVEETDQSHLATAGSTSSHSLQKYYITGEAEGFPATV
In short: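 ER-α protein levels measured by in-cell western with SP1 antibody, ratioed to DRAQ5 DNA signal and given as percent of untreated controls. Compounds added at 0.3–0.000003 μM final (eleven semilog points) to adherent MCF-7 cells in stripped serum; exposure 4 or 24 h before fixation.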

## CCCCOc1cccc(/C(CC)=C(\c2ccc(/C=C/C(=O)O)cc2)c2ccc3[nH]ncc3c2)c1 [Compound 96, (E)-3-(4-((E)-2-(3-Butoxyphenyl)-1-(1H-indazol-5-yl)but-1-en-1-yl)phenyl)acrylic acid]
MCF-7 cells
  MCF7 Viability Assay Max Response: ++ (++ = a single % value ≧ 40%)
  pIC50: ≥ 7.00
ER-α
  Emax: ≥ 40%
  DC50: ≤ 100 nM

## CCCCOc1ccc(/C(CC)=C(\c2ccc(/C=C/C(=O)O)cc2)c2ccc3[nH]ncc3c2)cc1 [Compound 97, (E)-3-(4-((E)-2-(4-Butoxyphenyl)-1-(1H-indazol-5-yl)but-1-en-1-yl)phenyl)acrylic acid]
MCF-7 cells
  MCF7 Viability Assay Max Response: ++ (++ = a single % value ≧ 40%)
  pIC50: ≥ 7.00
ER-α
  Emax: ≥ 40%
  DC50: ≤ 100 nM

## CC/C(=C(/c1ccc(/C=C/C(=O)O)cc1)c1ccc2[nH]ncc2c1)c1ccccc1S(C)(=O)=O [Compound 98, (E)-3-(4-((E)-1-(1H-Indazol-5-yl)-2-(2-(methylsulfonyl)phenyl)but-1-en-1-yl)phenyl)acrylic acid]
MCF-7 cells
  MCF7 Viability Assay Max Response: ++ (++ = a single % value ≧ 40%)
  pIC50: ≥ 7.00
ER-α
  Emax: ≥ 40%

## CC/C(=C(/c1ccc(/C=C(\C)C(=O)O)cc1)c1ccc2[nH]ncc2c1)c1ccccc1 [Compound 99, (E)-3-(4-((E)-1-(1H-Indazol-5-yl)-2-phenylbut-1-en-1-yl)phenyl)-2-methylacrylic acid]
MCF-7 cells
  MCF7 Viability Assay Max Response: ++ (++ = a single % value ≧ 40%)
  pIC50: ≥ 7.00
ER-α
  Emax: ≥ 40%
  DC50: ≤ 100 nM

## CC/C(=C(\c1ccc2[nH]ncc2c1)c1ccc(/C=C/C(=O)O)cc1C)c1ccccc1 [Compound 100, (E)-3-(4-((Z)-1-(1H-Indazol-5-yl)-2-phenylbut-1-en-1-yl)-3-methylphenyl)acrylic acid]
MCF-7 cells
  MCF7 Viability Assay Max Response: ++ (++ = a single % value ≧ 40%)
  pIC50: ≥ 7.00
ER-α
  Emax: ≥ 40%

## CC/C(=C(/c1ccc(/C=C/C(=O)O)c(C)c1)c1ccc2[nH]ncc2c1)c1ccccc1 [Compound 101, (E)-3-(4-((E)-1-(1H-Indazol-5-yl)-2-phenylbut-1-en-1-yl)-2-methylphenyl)acrylic acid]
MCF-7 cells
  MCF7 Viability Assay Max Response: ++ (++ = a single % value ≧ 40%)
  pIC50: ≥ 7.00
ER-α
  Emax: ≥ 40%

## CC/C(=C(/c1ccc(/C=C/C(=O)O)c(Cl)c1)c1ccc2[nH]ncc2c1)c1ccccc1 [Compound 102, (E)-3-(4-((Z)-1-(1H-Indazol-5-yl)-2-phenylbut-1-en-1-yl)-2-chlorophenyl)acrylic acid]
MCF-7 cells
  MCF7 Viability Assay Max Response: ++ (++ = a single % value ≧ 40%)
  pIC50: ≥ 7.00
ER-α
  Emax: ≥ 40%
  DC50: ≤ 100 nM

## CC/C(=C(/c1ccc(/C=C(\F)C(=O)O)cc1)c1ccc2[nH]ncc2c1)c1ccccc1 [Compound 103, (Z)-3-(4-((E)-1-(1H-Indazol-5-yl)-2-phenylbut-1-en-1-yl)phenyl)-2-fluoroacrylic acid]
MCF-7 cells
  MCF7 Viability Assay Max Response: ++ (++ = a single % value ≧ 40%)
  pIC50: < 7.00
ER-α
  Emax: ≥ 40%
  DC50: ≤ 100 nM

## CC/C(=C(/c1ccc(/C=C(\Cl)C(=O)O)cc1)c1ccc2[nH]ncc2c1)c1ccccc1 [Compound 104, (Z)-3-(4-((E)-1-(1H-Indazol-5-yl)-2-phenylbut-1-en-1-yl)phenyl)-2-chloroacrylic acid]
MCF-7 cells
  MCF7 Viability Assay Max Response: ++ (++ = a single % value ≧ 40%)
  pIC50: < 7.00
ER-α
  Emax: ≥ 40%
  DC50: ≤ 100 nM

## CC/C(=C(\c1ccc2[nH]ncc2c1)c1ccc(/C=C/C(=O)O)cc1F)c1ccccc1 [Compound 105, (E)-3-(4-((Z)-1-(1H-Indazol-5-yl)-2-phenylbut-1-en-1-yl)-3-fluorophenyl)acrylic acid]
MCF-7 cells
  MCF7 Viability Assay Max Response: ++ (++ = a single % value ≧ 40%)
  pIC50: ≥ 7.00
ER-α
  Emax: ≥ 40%
  DC50: ≤ 100 nM

## CC/C(=C(/c1ccc(/C=C/C(=O)O)c(F)c1)c1ccc2[nH]ncc2c1)c1ccccc1 [Compound 106, (E)-3-(4-((Z)-1-(1H-Indazol-5-yl)-2-phenylbut-1-en-1-yl)-2-fluorophenyl)acrylic acid]
MCF-7 cells
  MCF7 Viability Assay Max Response: ++ (++ = a single % value ≧ 40%)
  pIC50: ≥ 7.00
ER-α
  Emax: ≥ 40%
  DC50: ≤ 100 nM

## CC/C(=C(/c1ccc(/C=C/C(=O)O)c(C(F)(F)F)c1)c1ccc2[nH]ncc2c1)c1ccccc1 [Compound 107, (E)-3-(4-((Z)-1-(1H-Indazol-5-yl)-2-phenylbut-1-en-1-yl)-2-(trifluoromethyl)phenyl)acrylic acid]
MCF-7 cells
  MCF7 Viability Assay Max Response: ++ (++ = a single % value ≧ 40%)
  pIC50: < 7.00
ER-α
  Emax: ≥ 40%
  DC50: ≤ 100 nM

## CC/C(=C(\c1ccc2[nH]ncc2c1)c1ccc(/C=C/C(=O)O)cc1OC)c1ccccc1 [Compound 108, (E)-3-(4-((Z)-1-(1H-Indazol-5-yl)-2-phenylbut-1-en-1-yl)-3-methoxyphenyl)acrylic acid]
MCF-7 cells
  MCF7 Viability Assay Max Response: ++ (++ = a single % value ≧ 40%)
  pIC50: ≥ 7.00
ER-α
  Emax: ≥ 40%

## CC/C(=C(/c1ccc(/C=C/C(=O)O)c(OC)c1)c1ccc2[nH]ncc2c1)c1ccccc1 [Compound 109, (E)-3-(4-((Z)-1-(1H-Indazol-5-yl)-2-phenylbut-1-en-1-yl)-2-methoxyphenyl)acrylic acid]
MCF-7 cells
  MCF7 Viability Assay Max Response: ++ (++ = a single % value ≧ 40%)
  pIC50: ≥ 7.00
ER-α
  Emax: ≥ 40%

## CCOC(=O)/C=C/c1ccc(/C(=C(/CC)c2ccc(F)cc2Cl)c2ccc3[nH]ncc3c2)cc1.Cl [Compound 110, (E)-Ethyl 3-(4-((E)-2-(2-chloro-4-fluorophenyl)-1-(1H-indazol-5-yl)but-1-en-1-yl)phenyl)acrylate hydrochloride]
MCF-7 cells
  MCF7 Viability Assay Max Response: + (+ = a single % value < 40%)
  pIC50: ≥ 7.00
ER-α
  Emax: ≥ 40%
  DC50: ≤ 100 nM

## CCOC(=O)/C=C/c1ccc(/C(=C(/CC)c2ccc(Cl)cc2Cl)c2ccc3[nH]ncc3c2)cc1 [Compound 112, (E)-Ethyl 3-(4-((E)-2-(2,4-dichlorophenyl)-1-(1H-indazol-5-yl)but-1-en-1-yl)phenyl)acrylate]
MCF-7 cells
  MCF7 Viability Assay Max Response: + (+ = a single % value < 40%)
  pIC50: ≥ 7.00
ER-α
  Emax: ≥ 40%
  DC50: ≤ 100 nM

## CC/C(=C(/c1ccc(/C=C/C(=O)O)cc1)c1ccc2[nH]ncc2c1)c1ccc(Cl)cc1Cl [Compound 113, (E)-3-(4-((E)-2-(2,4-Dichlorophenyl)-1-(1H-indazol-5-yl)but-1-en-1-yl)phenyl)acrylic acid]
MCF-7 cells
  MCF7 Viability Assay Max Response: ++ (++ = a single % value ≧ 40%)
  pIC50: ≥ 7.00
ER-α
  Emax: ≥ 40%
  DC50: ≤ 100 nM

## CC/C(=C(/c1ccc(/C=C/C(=O)O)cc1)c1ccc2[nH]ncc2c1)c1ccc(Cl)cc1C(F)(F)F [Compound 114, (E)-3-(4-((E)-2-(4-Chloro-2-(trifluoromethyl)phenyl)-1-(1H-indazol-5-yl)but-1-en-1-yl)phenyl)acrylic acid]
MCF-7 cells
  MCF7 Viability Assay Max Response: ++ (++ = a single % value ≧ 40%)
  pIC50: ≥ 7.00
ER-α
  Emax: ≥ 40%
  DC50: ≤ 100 nM

## O=C(O)/C=C/c1ccc(/C(=C(\c2ccc(F)cc2Cl)C2CC2)c2ccc3[nH]ncc3c2)cc1 [Compound 115, (E)-3-(4-((E)-2-(2-Chloro-4-fluorophenyl)-2-cyclopropyl-1-(1H-indazol-5-yl)vinyl)phenyl)acrylic acid]
MCF-7 cells
  MCF7 Viability Assay Max Response: ++ (++ = a single % value ≧ 40%)
  pIC50: ≥ 7.00
ER-α
  Emax: ≥ 40%
  DC50: ≤ 100 nM

## CC/C(=C(/c1ccc(/C=C/C(=O)O)cc1)c1ccc2[nH]ncc2c1)c1ccc(F)cc1C(F)(F)F [Compound 116, (E)-3-(4-((E)-2-(4-Fluoro-2-(trifluoromethyl)phenyl)-1-(1H-indazol-5-yl)but-1-en-1-yl)phenyl)acrylic acid]
MCF-7 cells
  MCF7 Viability Assay Max Response: ++ (++ = a single % value ≧ 40%)
  pIC50: ≥ 7.00
ER-α
  Emax: ≥ 40%
  DC50: ≤ 100 nM

## CC/C(=C(/c1ccc(/C=C/C(=O)O)cc1)c1ccc2[nH]ncc2c1F)c1ccc(Cl)cc1Cl [Compound 118, (E)-3-(4-((E)-2-(2,4-Dichlorophenyl)-1-(4-fluoro-1H-indazol-5-yl)but-1-en-1-yl)phenyl)acrylic acid]
MCF-7 cells
  MCF7 Viability Assay Max Response: ++ (++ = a single % value ≧ 40%)
  pIC50: ≥ 7.00
ER-α
  Emax: ≥ 40%
  DC50: ≤ 100 nM

## CC/C(=C(/c1ccc(/C=C/C(=O)O)cc1)c1ccc2[nH]ncc2c1F)c1ccc(Cl)cc1C(F)(F)F [Compound 119, (E)-3-(4-((E)-2-(4-Chloro-2-(trifluoromethyl)phenyl)-1-(4-fluoro-1H-indazol-5-yl)but-1-en-1-yl)phenyl)acrylic acid]
MCF-7 cells
  MCF7 Viability Assay Max Response: ++ (++ = a single % value ≧ 40%)
  pIC50: ≥ 7.00
ER-α
  Emax: ≥ 40%
  DC50: ≤ 100 nM
